Measurements: patent US7405235B2, “Transcription factor modulating compounds and methods of use thereof” (Paratek Pharmaceuticals, Inc., priority 2001, dated 2008)

biological target: MarA (Escherichia coli, UniProt P0ACH5); assay: MarA-activated selective marker (ccdB) cell survival assay, Example 2; format: cell-based; parameters: key: * indicates good inhibition of MarA; ** indicates very good inhibition of MarA; conditions: inhibition of MarA: cell survival under conditions of MarA expression (ccdB under MarA-activated promoter)
From the text: In the absence of Mar A, the expression of the selective marker would be silent. For example, in the case of regulation of the cytotoxic gene ccdB, the gene would be silent and the cells would survive. Synthesis of MarA from an inducible plasmid in a suitable host would result in the activation of the MarA responsive activatable promoter and expression of the selective marker. In the case of ccdB, the gene would be expressed and result in cell death. Compounds that inhibit MarA would be identified as those that permit cell survival under conditions of MarA expression.
In the absence of MarA, the expression of the selective marker is silent and cells survive. Synthesis of MarA from an inducible plasmid in a bacterial or yeast cell leads to the activation of the inaA promoter, expression of ccdB, and subsequently results in cell death. Compounds that inhibit MarA are those that permit cell survival under conditions of MarA expression. In Table 4, * indicates good inhibition of MarA and ** indicates very good inhibition of MarA.

Chain of MarA (P0ACH5 whole entry, looked up): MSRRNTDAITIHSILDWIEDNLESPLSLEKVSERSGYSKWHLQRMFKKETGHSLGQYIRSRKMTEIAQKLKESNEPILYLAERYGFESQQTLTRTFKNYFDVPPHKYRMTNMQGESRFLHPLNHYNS

| SMILES | MarA inhibition class |
| --- | --- |
| O=C1C(=C2NC(c3ccccn3)C3C(=O)N(c4ccccc4)C(=O)C23)C(=O)c2ccccc21 (stereo not shown) [BB, 4-(1,3-dioxo-1,3-dihydro-2H-inden-2-yliden)-2-phenyl-6-(2-pyridinyl)tetrahydro pyrrolo[3,4-c]pyrrole-1,3(2H,3aH)-dione] | * |
| CCOC(=O)C(C(N)=O)C1(O)OC(c2ccc(C)cc2)=CC1=O (stereo not shown) [BC, 2-(2-Hydroxy-3-oxo-5-p-tolyl-2,3-dihydro-furan-2-yl)-malonamic acid ethylester] | * |
| O=C(O)COn1c(-c2ccccc2)nc2ccc([N+](=O)[O-])cc21 [BD, 2-[(6-nitro-2-phenyl-1H-1,3-benzimidazol-1-yl)oxy]acetic acid] | * |
| O=c1cc(-c2ccc(F)cc2)oc2ccccc12 [BE, 2-(4-fluorophenyl)-4H-chromen-4-one] | * |
| COn1c(-c2ccc(C)cc2)nc2ncccc21 [BF, 1-methoxy-2-(4-methylphenyl)-1H-imidazo[4,5-b]pyridine] | * |
| O=c1cc(-c2ccc(O)cc2)oc2ccccc12 [BG, 2-(4-hydroxyphenyl)-4H-chromen-4-one] | * |
| CSc1nnc2c(n1)OC(c1ccc([N+](=O)[O-])o1)Nc1ccccc1-2 (stereo not shown) [C, 3-Methylsulfanyl-6-(5-nitro-furan-2-yl)-6,7-dihydro-5-oxa-1,2,4,7-tetraaza-dibenzo[a,c]cycloheptene] | * |
| CSc1nnc2c(n1)OC(c1ccc(-c3ccc([N+](=O)[O-])cc3)o1)Nc1ccccc1-2 (stereo not shown) [D, 3-Methylsulfanyl-6-[5-(4-nitro-phenyl)-furan-2-yl]-6,7-dihydro-5-oxa-1,2,4,7-tetraaza-dibenzo[a,c]cycloheptene] | * |
| CCSc1nnc2c(n1)OC(c1ccc(O)c(O)c1)Nc1ccccc1-2 (stereo not shown) [E, 4-(3-Ethylsulfanyl-6,7-dihydro-5-oxa-1,2,4,7-tetraza-dibenzo[a,c]cyclohepten-6-yl)-benzene-1,2-diol] | * |
| CCCSc1nnc2c(n1)OC(c1ccc(OCc3ccccc3)cc1)Nc1ccccc1-2 (stereo not shown) [F, 6-(4-Benzyloxy-phenyl)-3-propylsulfanyl-6,7-dihydro-5-oxa-1,2,4,7-tetraaza-dibenzo[a,c]cycloheptene] | ** |
| CCCCSc1nnc2c(n1)OC(c1ccc(OC)cc1OC)Nc1ccccc1-2 (stereo not shown) [H, 3-Butylsulfanyl-6-(2,4-dimeethoxy-phenyl)-6,7-dihydro-5-oxa-1,2,4,7-tetraaza-dibenzo[a,c]cycloheptene] | * |
| C=CCOc1ccc(C2Nc3ccccc3-c3nnc(SCCCC)nc3O2)cc1 (stereo not shown) [I, 6-(4-Allyloxy-phenyl)-3-butylsulfanyl-6,7-dihydro-5-oxa-1,2,4,7-tetraaza-dibenzo[a,c]cycloheptene] | ** |
| CCCCSc1nnc2c(n1)OC(c1ccc(OCC)cc1)Nc1ccccc1-2 (stereo not shown) [J, 3-Butylsulfanyl-6-(4-ethoxy-phenyl)-6,7-dihydro-5-oxa-1,2,4,7-tetraaza-dibenzo[a,c]cycloheptene] | * |
| CCCSc1nnc2c(n1)OC(c1ccc(OC)cc1)Nc1ccccc1-2 (stereo not shown) [K, 6-(4-Methoxy-phenyl)-3-propylsulfanyl-6,7-dihydro-5-oxa-1,2,4,7-tetraaza-dibenzo[a,c]cycloheptene] | * |
| CCCSc1nnc2c(n1)OC(c1ccc(-c3cccc([N+](=O)[O-])c3)o1)Nc1ccccc1-2 (stereo not shown) [L, 6-[5-(3-Nitro-phenyl)-furan-2-yl]-3-propylsulfanyl-6,7-dihydro-5-oxa-1,2,4,7-tetraaza-dibenzo[a,c]cycloheptane] | ** |
| O=c1/c(=C\c2c[nH]nc2-c2ccccc2)sc2nc3ccccc3n12 [M, 2-(3-Phenyl-1H-pyrazol-4-ylmethylene)-benzo[4,5]imidazo[2,1-b]thiazol-3-one] | ** |
| CCOC(=O)C1=C(C)N=c2sc(=Cc3ccc(-c4cccc(C(=O)O)c4)o3)c(=O)n2C1c1c(OC)ccc2ccccc12 (stereo not shown) [N, 2-[5-(3-Carboxy-phenyl)-furan-2-ylmethylene]-5-(2-methoxy-naphthalen-1-yl)-7-methyl-3-oxo-2,3-dihydro-5H-thiazolo[3,2-a]pyrimidine-6-carboxylicacid ethyl ester] | ** |
| CCOC(=O)C1=C(C)N=c2sc(=Cc3ccc(-c4ccc([N+](=O)[O-])cc4C)o3)c(=O)n2C1c1ccc2c(c1)OCO2 (stereo not shown) [P, 5-Benzo[1,3]dioxol-5-yl-7-methyl-2-[5-(2-methyl-4-nitro-phenyl)-furan-2-ylmethylene]-3-oxo-2,3-dihydro-5H-thiazolo[3,2-a]pyrimidine-6-carboxylicacid ethyl ester] | * |
| CCOC(=O)C1=C(C)N=c2s/c(=C/c3ccc(-c4cccc(C(F)(F)F)c4)o3)c(=O)n2C1c1ccccc1 (stereo not shown) [U, 7-Methyl-3-oxo-5-phenyl-2-[5-(3-trifluoromethyl-phenyl)-furan-2-ylmethylene]-2,3-dihydro-5H-thiazolo[3,2-a]pyrimidine-6-carboxylicacid ethyl ester] | ** |
| CCOC(=O)C1=C(C)N=c2sc(=Cc3ccc(-c4cccc(C(=O)O)c4)o3)c(=O)n2C1c1ccc(N(C)C)cc1 (stereo not shown) [W, 2-[5-(3-Carboxy-phenyl)-furan-2-ylmethylene]-5-(4-dimethylamino-phenyl)-7-methyl-3-oxo-2,3-dihydro-5H-thiazolo[3,2-a]pyrimidine-6-carboxylicacid ethyl ester] | ** |
| CCOC(=O)C1=C(C)N=c2sc(=Cc3ccc(-c4ccc(C)c([N+](=O)[O-])c4)o3)c(=O)n2C1c1ccc(N(C)C)cc1 (stereo not shown) [X, 5-(4-Dimethylamino-phenyl)-7-methyl-2-[5-(4-methyl-3-nitro-phenyl)-furan-2-ylmethylene]-3-oxo-2,3-dihydro-5H-thiazolo[3,2-a]pyrimidine-6-carboxylicacid ethyl ester] | ** |
| O=C1C=Cc2ccccc2/C1=N/Oc1ccc2noc3c2c1C(=O)c1ccccc1-3 [Z, [1,2]Naphthoquinone 1-[O-(6-oxo-6H-anthra[1,9-cd]isoxazol-5-yl)-oxime]] | * |
